Measurements published in patent US11149046B2, “Antibacterial sideromycins” (Hsiri Therapeutics, Inc., priority 2014, dated 2021).
In brackets after ≈: the same amount, converted by molar mass. Entries after “also recorded” stand apart in the source; their conditions may differ. Where two headings read alike, the source gives them in different places.

What was measured:
Stability assay in media = format: physicochemical
From the text: The initial antibacterial assay shown in Table 6 indicated activity against select strains of Pseudomonas and/or Acinetobacter. However, the reduction of activity at higher concentrations but excellent activity at lower, drug like concentrations, raised the concern that either the conjugates were unstable or some of the siderophore component remained in the final conjugate and at higher concentrations, the siderophore growth promotion would compete for the sideromycin growth inhibition. The possible instability was considered to be due to the presence of the short succinate linker that upon bacterial uptake and iron removal would promote intramolecular release of the antibiotic component and regeneration of the siderophore with subsequent growth promotion effects. […] Meanwhile, the assays were repeated with intentional addition (titration with) of the siderophore component itself to the sideromycins. […] Therefore, each of these mixed ligand sideromycins has been resynthesized and rigorously purified. […] MIC antibacterial assays are being repeated with the newly prepared samples. […] Thus, the mixed ligand system has the potential to be a very potent and selective anti-Acinetobacter sideromycin.

Pa6 = test: MIC determination; format: cell-based, Pseudomonas aeruginosa; conditions: read-out: MIC
From the text: (§1) MIC (minimum inhibition concentration) is given in μM and AD (agar diffusion zones of inhibition are given in mm from Kirby-Bauer Petri dish growth inhibition studies).

Cytotoxicity assay [1] = conditions: human, MCF7 cells
[2] = tested on: Pa-Da-1304 CF patient isolate; test: MIC determination; format: cell-based, Pseudomonas aeruginosa
From the text: as §1
We obtained a clinical isolate of Pseudomonas from a cystic fibrosis patient.

Cytotoxicity assay [3] = conditions: human, HeLa cells
P. aeruginosa KW799/wt = test: MIC determination; format: cell-based, Pseudomonas aeruginosa
From the text: (§2) Table 3 that was included in the first Example 4 section provides antibacterial data for the first synthetic sideromycins we prepared and studied. The second Example 4 section elaborated and expanded on that data with inclusion of representative antibacterial data in the text and associated pictures of Petri dish assays. MIC (minimum inhibition concentration) is given in μM and AD (agar diffusion zones of inhibition are given in mm from Kirby-Bauer Petri dish growth inhibition studies).

[4] = tested on: strains of Pseudomonas and Acinetobacter; test: Antibacterial activity, general statements; format: cell-based; conditions: general statements of the text
Description: Antibiotic activity was determined using agar diffusion assays against representative Gram-negative bacteria, including Pseudomonas aeruginosa (Pa6), and several multidrug resistant forms of Acinetobacter baumannii. Representative results are shown in Table 1 and a corresponding picture of an actual petri dish showing the agar diffusion results (FIG. 4). […].

Cytotoxicity assay [5] = conditions: human, PC3 cells
[6] = tested on: Pseudomonas aeruginosa 01 (Pa01); test: MIC determination; format: cell-based
From the text: as §2

Pa4 = test: MIC determination; format: cell-based, Pseudomonas aeruginosa
From the text: as §2

A. baumannii ATCC 17961 = test: MIC determination; format: cell-based, Acinetobacter baumannii; conditions: read-out: MIC
From the text: as §2

[7] = tested on: Pseudomonas aeruginosa KW799/wt; test: Agar diffusion (Kirby-Bauer) assay; format: cell-based; conditions: wild type Pseudomonas; FIG. 8, 9, 12
From the text: as §2

[8] = tested on: Acinetobacter baumannii ATCC 17961; test: Agar diffusion (Kirby-Bauer) assay, with and without hydrogel; format: cell-based; conditions: Acinetobacter; FIG. 8, 9, 10
From the text: as §2
We investigated whether the sideromycin absorbed in the gel be able to diffuse out of the gel and into the agar to effect antibacterial growth. As a control, the sideromycin alone, without gel, was added in a separate 9 mm well, as usual.
The second question was whether the sideromycin continue to be released and be able to effect bacterial growth inhibition over extended periods. Thus, additional identical agar plates were prepared and stored at 4° C. for 24, 48 and 72 hours to allow diffusion of the sideromycin (control and gel forms) into the agar before allowing the bacteria to grow in an incubator. Then after each time period, the Petri dishes were incubated at 37° C. for 20 hours to promote bacteria growth in the agar. […] The study has been extended to as long as 168 hours (one week) with retention of antibiotic effectiveness.

A. baumannii BAA1710 = test: Antibacterial activity of MG-1-189 and sulbactam; conditions: single agent
Acinetobacter = test: Murine Survival Experiment with Acinetobacter; format: in vivo; conditions: 50 mg/kg IV at +30 min and +4 hr
Description: In vivo data for murine survival with Acinetobacter is shown in Table 9 below and graphically in FIG. 14. In the experiments, 10^8 Acinetobacter was administered IP at time 0 on Day 1, and antibiotic was administered twice IV at +30 min and +4 hr

[9] = tested on: Pseudomonas aeruginosa KW799/61; format: cell-based; conditions: outer membrane permeable mutant; FIG. 9 center panel
From the text: as §1

A. baumannii BAA1793 = test: Antibacterial activity of MG-1-189 and sulbactam; conditions: single agent
[10] = tested on: P. aeruginosa KW799/61 (permeability mutant); test: microbe, parasite or virus in culture; format: cell-based, Pseudomonas aeruginosa; conditions: Table 5
From the text: as §1

A. baumannii BAA1800 = test: Antibacterial activity of MG-1-189 and sulbactam; conditions: single agent
A. baumannii BAA1797 = test: Antibacterial activity of MG-1-189 and sulbactam; conditions: single agent

Q: For `CC(=O)Oc1cccc(C(=O)NCCCCN(CCCNC(=O)c2cccc(OC(C)=O)c2OC(C)=O)C(=O)CCC(=O)NCCCCCN(OC(C)=O)C(=O)CCC(=O)N[C@@H](C(=O)N[C@@H]2C(=O)N3C2SC(C)(C)[C@@H]3C(=O)O)c2ccccc2)c1OC(C)=O` (some centres unmarked) [MG-1-121], which “stability in media (in words)” value (Stability assay in media; incubated in media under conditions that mimic the antibacterial assays, LC/MS) is on record?
A: expected loss of acetyl groups

Q: And the MIC (Pa6; Pseudomonas aeruginosa, Table 6)?
A: > 50 µM

Q: What about the IC50 (Cytotoxicity assay [1]) of the same compound?
A: > 20 µM

Q: What about the MIC ([2]; Pseudomonas aeruginosa, clinical isolate from a cystic fibrosis patient) of the same compound?
A: > 50 µM

Q: And the IC50 (Cytotoxicity assay [3])?
A: > 20 µM

Q: And the “MIC” value (P. aeruginosa KW799/wt)?
A: 0.14 to 0.2 µM

Q: And the MIC (P. aeruginosa KW799/wt; Pseudomonas aeruginosa, KW799/WT, Table 6, read-out: MIC)?
A: 0.14 to 0.2 µM (≈ 0.176 to 0.252 µg/mL)

Q: What about the MIC (P. aeruginosa KW799/wt; listed as MG-1-239, read-out: MIC) of the same compound?
A: 0.05 µM (≈ 0.063 µg/mL)

Q: And the “antibacterial activity (in words)” value [4]?
A: broad spectrum activity

Q: What about the IC50 (Cytotoxicity assay [5]) of the same compound?
A: > 20 µM

Q: And the “MIC” value [6]?
A: 0.39 to 0.55 µM

Q: What about the MIC ([6]; Pseudomonas aeruginosa, Table 6, read-out: MIC) of the same compound?
A: 0.39 to 0.55 µM (≈ 0.491 to 0.693 µg/mL)

Q: And the MIC ([6]; Pseudomonas aeruginosa, read-out: MIC)?
A: 0.2 µM (≈ 0.252 µg/mL)

Q: For `O=C(CCC(=O)N(CCCCNC(=O)c1cccc(O)c1O)CCCNC(=O)c1cccc(O)c1O)NCCCCCN(O)C(=O)CCCC(=O)NC(C(=O)NC1C(=O)N2C(C(=O)O)=C(Cl)CCC12)c1ccccc1` (centres unmarked) [MG-1-227], which “stability in media (in words)” value (Stability assay in media) is on record?
A: showed the desired stability

Q: What about the MIC (Pa6; beta-lactamase producer strain) of the same compound?
A: > 50 µM

Q: What about the MIC ([2]; clinical isolate from a cystic fibrosis patient) of the same compound?
A: > 50 µM

Q: And the MIC (Pa4)?
A: > 50 µM

Q: What about the MIC (P. aeruginosa KW799/wt; read-out: MIC) of the same compound?
A: 0.2 µM (≈ 0.213 µg/mL)

Q: What about the IC50 (MCF7) of the same compound?
A: 11 µM

Q: What about the IC50 (Hela) of the same compound?
A: > 20 µM

Q: And the IC50 (PC3)?
A: 15 µM

Q: And the MIC (A. baumannii ATCC 17961)?
A: 0.025 µM (≈ 0.0266 µg/mL)

Q: With `N[C@@H](C(=O)N[C@@H]1C(=O)N2C(C(=O)O)=C(Cl)CC[C@H]12)c1ccccc1` [loracarbef, reference compound] as the compound, how does the MIC (Pa6; Table 5) read?
A: >200 µM

Q: What about the “zones of inhibition (in words)” value [7] of the same compound?
A: inactive

Q: And the MIC ([2]; Table 5)?
A: >200 µM

Q: And the “susceptibility of the clinical isolate (in words)” value ([2]; preliminary tests)?
A: resistant

Q: What about the “zones of inhibition (in words)” value [8] of the same compound?
A: inactive; also recorded: no inhibition

Q: And the “Antibacterial activity (MIC)” value (A. baumannii BAA1710)?
A: >25 µM

Q: And the “murine survival (surviving mice)” value (Acinetobacter; D 1, 10^8 Acinetobacter IP)?
A: 6

Q: And the “murine survival (surviving mice)” value (Acinetobacter; D 2)?
A: 2

Q: What about the “murine survival (surviving mice)” value (Acinetobacter; D 3) of the same compound?
A: 2

Q: What about the “murine survival (surviving mice)” value (Acinetobacter; D 4) of the same compound?
A: 2

Q: And the “murine survival (surviving mice)” value (Acinetobacter; D 5)?
A: 2

Q: What about the “murine survival (surviving mice)” value (Acinetobacter; D 6) of the same compound?
A: 2

Q: What about the “murine survival (surviving mice)” value (Acinetobacter; D 7) of the same compound?
A: 2

Q: What about the MIC (Pa4; Table 5) of the same compound?
A: >200 µM

Q: And the MIC (P. aeruginosa KW799/wt; Table 5, read-out: MIC)?
A: >200 µM

Q: And the MIC (P. aeruginosa KW799/wt; Table 7, read-out: MIC)?
A: >200 µM

Q: What about the “zones of inhibition (in words)” value [9] of the same compound?
A: very small zone of inhibition

Q: And the “Antibacterial activity (MIC)” value (A. baumannii BAA1793)?
A: >25 µM

Q: And the MIC [10]?
A: 50 µM (≈ 17.5 µg/mL)

Q: And the “Antibacterial activity (MIC)” value (A. baumannii BAA1800)?
A: >25 µM

Q: And the “Antibacterial activity (MIC)” value (A. baumannii BAA1797)?
A: >25 µM

Q: What about the MIC (A. baumannii ATCC 17961; Table 5, head prints A. baumannii only) of the same compound?
A: >200 µM

Q: What about the MIC (A. baumannii ATCC 17961; Table 7) of the same compound?
A: >200 µM

Q: What about the MIC ([6]; Table 5, read-out: MIC) of the same compound?
A: >200 µM

Q: What about the MIC ([6]; Table 7, read-out: MIC) of the same compound?
A: >200 µM
